Entries after “also recorded” stand apart in the source; their conditions may differ.
Columns and labels:
[1] = test system: ETAR in MCF-7 tumor xenografts; assay: In vivo FMT/FRI imaging of MCF-7 tumor xenografts; design: species or system mice
[2] = target: T1, ETAR in MDA-MB-435 tumor xenografts (Mus musculus, UniProt Q61614); assay: In vivo FMT/FRI imaging of MDA-MB-435 murine xenograft models; design: species or system mice
T1 construct: from tissue; host or cells: MDA-MB-435 tumour xenografts in mice (host-derived cells, e.g. endothelial)
T1 sequence (Q61614 21-427): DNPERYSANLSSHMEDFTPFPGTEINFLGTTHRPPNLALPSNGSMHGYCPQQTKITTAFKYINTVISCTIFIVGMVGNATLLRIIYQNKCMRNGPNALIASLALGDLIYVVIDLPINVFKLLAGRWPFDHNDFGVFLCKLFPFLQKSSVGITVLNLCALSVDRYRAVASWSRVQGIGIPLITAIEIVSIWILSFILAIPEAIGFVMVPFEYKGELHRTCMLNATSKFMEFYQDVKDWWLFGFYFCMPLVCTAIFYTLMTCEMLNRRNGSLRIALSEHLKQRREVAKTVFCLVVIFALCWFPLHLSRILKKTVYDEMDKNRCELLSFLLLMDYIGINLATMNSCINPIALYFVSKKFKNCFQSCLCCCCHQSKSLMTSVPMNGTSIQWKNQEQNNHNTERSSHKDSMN
From the text: FIG. 7: 3D-FMTexamination of MDA-MB-435 murine xenograft models.

[3] = test system: ETA receptor on MCF-7 human breast adenocarcinoma cells; assay: In vitro cell binding assay by fluorescence microscopy, MCF-7 cells; conditions: for cellular fluorescence signal (fluorescence microscopy): 45 min at 4° C., nmol amounts per well
Method: Human breast cancer cell line MCF-7 (ATCC-No. HTB-22) was cultured in RPMI 1640 (Invitrogen Corporation, San Diego, USA) supplemented with 10% fetal calf serum, penicillin and streptomycin. Cells were grown routinely in a monolayer culture at 37° C. in a 5% CO2 humidified air atmosphere. Antibodies were murine IgGs and specific for the endothelin A receptor.
Cells were seeded in 4-well plates (Nunc, Wiesbaden) and incubated in culture medium (0.5 ml/well) overnight. For binding studies cells were washed twice with PBS and resuspended in 150 μl binding-buffer (20 mM HEPES in PBS with Ca^2+/Mg^2+, 0.2% BSA, 0.1% Glucose, pH 7.4). […] After an incubation period of 45 min at 4° C. cells were washed twice with PBS and were resuspended in binding buffer. For competition binding studies free ETAR antagonist (final amount 50 nmol) or ETAR antibodies (1.3 μg) were added to each well for 45 min at 4° C. Cells could be directly visualized by fluorescence microscopy (40× and 60× objective, Nikon TE 2000-S, Nikon-Düsseldorf). The microscope was equipped with a mercury vapour lamp (100 W), 620/775 nm and 545/675 nm (excitation/emission) filters (AHF Analysentechnik, Tübingen), a Nikon DXM1200F camera and ACT1/DXM1200F software (Nikon, Japan).
Binding of the labelled antagonist could be directly analyzed by fluorescence microscopy.
(§1) Cell binding assays. Cells (HT-1080 fibrosarcomas, MDA-MB435 ductal carcinomas, MCF-7 adenocarcinomas) were seeded in 4-well plates (Nunc GmbH & Co. KG, Wiesbaden, Germany) and incubated in culture medium (0.5 ml/well) overnight. For binding studies cells were washed twice with PBS and resuspended in 150 μl binding buffer (20 mM HEPES in PBS with Ca^2+/Mg^2+, 0.2% BSA, 0.1% Glucose, pH 7.4). […] After an incubation period of 45 min at 4° C. cells were washed twice with PBS and were resuspended in binding buffer. […] Cells could be directly visualised by fluorescence microscopy (40× objective, Nikon TE 2000-S, Nikon-Düsseldorf, Germany). The microscope was equipped with a mercury vapour lamp (100 W), 620/775 nm and 545/675 nm (excitation/emission) filters (AHF Analysentechnik, Tbingen, Germany), a Nikon DXM1200F camera and ACT1/DXM1200F software (Nikon, Japan).
(§2) In vitro cell binding assays. […] Binding of the labelled antagonist could be directly analysed by fluorescence microscopy.

[4] = test system: ETA-negative MDA-MB-435 human breast carcinoma cells; assay: In vitro cell binding assay by fluorescence microscopy, MDA-MB-435 cells; format: cell-based; conditions: 45 min at 4° C.
From the text: In vitro cell binding assays.

[5] = target: T2, ETA receptor on HT-1080 human fibrosarcoma cells (Homo sapiens, UniProt P25101); assay: In vitro cell binding assay by fluorescence microscopy, HT-1080 cells; format: cell-based; conditions: for cellular fluorescence signal (fluorescence microscopy): HT-1080 cells, 45 min at 4° C.
T2 construct: The highest amount of protein is found in human fibrosarcoma cells HT-1080; host or cells: HT-1080
T2 sequence (P25101 21-427): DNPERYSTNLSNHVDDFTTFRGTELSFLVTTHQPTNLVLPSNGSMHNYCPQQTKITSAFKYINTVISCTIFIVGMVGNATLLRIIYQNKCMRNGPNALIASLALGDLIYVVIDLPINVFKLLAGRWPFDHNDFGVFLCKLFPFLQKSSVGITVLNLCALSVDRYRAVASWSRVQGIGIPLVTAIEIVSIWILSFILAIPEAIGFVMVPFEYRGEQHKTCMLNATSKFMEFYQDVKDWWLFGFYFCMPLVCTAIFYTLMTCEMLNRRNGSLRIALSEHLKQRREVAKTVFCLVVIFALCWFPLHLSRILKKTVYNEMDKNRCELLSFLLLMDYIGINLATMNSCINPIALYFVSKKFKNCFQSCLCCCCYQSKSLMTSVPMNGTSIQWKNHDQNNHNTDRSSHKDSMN
Method: Cell lines and reagents. Human breast adenocarcinoma cell line MCF-7 (ATCC-No. HTB-22), MDA-MB-435 human breast carcinoma cells (ATCC-No. HTB-123) and HT-1080 human fibrosarcoma cells (ATCC-No. CCL-121) were cultured in RPMI 1640 (Invitrogen Corporation, San Diego, USA) supplemented with 10% fetal calf serum, penicillin and streptomycin. Cells were grown routinely in a monolayer culture at 37° C. in a 5% CO2 humidified air atmosphere.
as §1, §2

endothelin receptors [6] = conditions: literature value printed for comparison (lit.; ref. 37); cited from earlier work
myocardial ETAR = target: T3, myocardial ETAR (Mus musculus, UniProt Q61614); assay: In vivo FRI imaging of myocardial ETAR expression; conditions: mice, pre-dosing with PD 156707
T3 construct: from tissue; host or cells: mouse myocardium, in vivo
T3 sequence (Q61614 21-427): T1 sequence (Q61614 21-427)
Method: FIG. 6: In vivo application of the targeted fluorophore for imaging of myocardial ETAR—expression. Mice were injected with the targeted fluorophore with (middle) and without (right) pre-dosing with PD 156707. The left speciment is a saline injected control.

endothelin receptors [7] = assay: Competition binding studies with [125I]ET-1 on mouse ventricular membrane preparations; conditions: read-out: dissociation constant KD; Scatchard transformation of saturation data, mouse ventricular membranes
Method: Microsomes were prepared by homogenizing ventricles from DBA mice at 4° C. for 90 seconds in 1 ml of buffer A (10 mM EDTA, 10 mM HEPES, 0.1 mM benzamidine, pH 7.4), using a Polytron PT 3000 (Kinematica, Luceme, Switzerland). Homogenates were centrifuged at 45,000× gmax for 15 min at 4° C. The pellets were resuspended in 1 ml of buffer B (1 mM EDTA, 10 mM HEPES, 0.1 mM benzamidine, pH 7.4) and recentrifuged at 45,000× gmax for 15 min at 4° C. The pellets were resuspended in 1 ml of buffer B and centrifuged at 10,000× gmax for 10 min at 4° C. The supernatants were recentrifuged at 45,000×gmax for 15 min at 4° C. […]
For competition binding studies, the prepared membranes were resuspended in buffer D (10 mM Tris.HCl, 154 mM NaCl, 0.1 mM ascorbic acid, pH 7.4) at 0° C. […] The membrane bound radioactivity was determined in a γ-scintillation counter. Competition binding curves were analyzed by nonlinear regression analysis using the XMGRACE programme (Linux software).
Different concentrations of the prepared compound (1.0 pM-100 μM) were incubated with 40 pM [^125I]ET-1 and a fixed amount of mouse ventricular membrane preparation (10 μg) at 37° C. for 4 h. The membrane bound radioactivity was evaluated using a γ-scintillation counter and standardized on percentage of [^125I]ET-1. […]

[8] = MDA-MB-435, block (100 nmol PD 156707 10 minutes before), 1 h
[9] = MDA-MB-435, block (100 nmol PD 156707 10 minutes before), 3 h
[10] = MDA-MB-435, block (100 nmol PD 156707 10 minutes before), 5 h
[11] = MDA-MB-435, block (100 nmol PD 156707 10 minutes before), 24 h
[12] = MDA-MB-435, nativ, 24 h, 2 nmol

In the case of `CC[N+]1=C(/C=C/C=C/C=C2/N(CCCCCC(=O)NCCOCCOCCOCCOc3cc(CC4=C(c5ccc6c(c5)OCO6)C(=O)OC4(O)c4ccc(OC)cc4)cc(OC)c3OC)c3ccc4c(S(=O)(=O)O)cc(S(=O)(=O)O)cc4c3C2(C)C)C(C)(C)c2c1ccc1c(S(=O)(=O)O)cc(S(=O)(=O)O)cc21` (stereo not drawn) [ETAR-Cy 5.5], the “mean (FMT-data)” value ([1]; MCF-7, block, 1 h) is reported as 196.50, the “pmol (FMT-data)” value ([1]; MCF-7, block, 1 h) is reported as 224.00 pmol and the “mean (FMT-data)” value ([1]; MCF-7, block, 3 h) is reported as 66.50. For the same compound, the “pmol (FMT-data)” value ([1]; MCF-7, block, 3 h) was 274.50 pmol, the “mean (FMT-data)” value ([1]; MCF-7, block, 5 h) was 100.67 and the “pmol (FMT-data)” value ([1]; MCF-7, block, 5 h) was 201.67 pmol. For the same compound, the “mean (FMT-data)” value ([1]; MCF-7, block, 24 h) was 125.50, the “pmol (FMT-data)” value ([1]; MCF-7, block, 24 h) was 9.00 pmol and the “mean (FMT-data)” value ([1]; MCF-7, nativ, 1 h) was 148.00. The “pmol (FMT-data)” value ([1]; MCF-7, nativ, 1 h) was 599.00 pmol, the “mean (FMT-data)” value ([1]; MCF-7, nativ, 3 h) was 79.00 and the “pmol (FMT-data)” value ([1]; MCF-7, nativ, 3 h) was 339.00 pmol. The “mean (FMT-data)” value ([1]; MCF-7, nativ, 5 h) was 115.50, the “pmol (FMT-data)” value ([1]; MCF-7, nativ, 5 h) was 473.00 pmol and the “mean (FMT-data)” value ([1]; MCF-7, nativ, 24 h) was 207.67. The “pmol (FMT-data)” value ([1]; MCF-7, nativ, 24 h) was 33.00 pmol, the “fluorescence signal of tumor xenografts by FRI and FMT” value ([1]; MCF-7 xenografts, 2 nmol i.v.) was “high fluorescence signal yields” and the “fluorescence signal of tumor xenografts by FRI and FMT” value ([2]; MDA-MB 435 xenografts, 2 nmol i.v.) was “high fluorescence signal yields”. The “mean (FMT-data)” value [2, 8] was 253.57, the “pmol (FMT-data)” value [2, 8] was 22.14 pmol and the “mean (FMT-data)” value [2, 9] was 323.25. The “pmol (FMT-data)” value [2, 9] was 17.25 pmol, the “mean (FMT-data)” value [2, 10] was 343.78 and the “pmol (FMT-data)” value [2, 10] was 19.67 pmol. For the same compound, the “mean (FMT-data)” value [2, 11] was 273.80, the “pmol (FMT-data)” value [2, 11] was 34.80 pmol and the “mean (FMT-data)” value ([2]; MDA-MB-435, nativ, 1 h, 2 nmol) was 356.89. The “pmol (FMT-data)” value ([2]; MDA-MB-435, nativ, 1 h, 2 nmol) was 40.56 pmol, the “mean (FMT-data)” value ([2]; MDA-MB-435, nativ, 3 h, 2 nmol) was 326.33 and the “pmol (FMT-data)” value ([2]; MDA-MB-435, nativ, 3 h, 2 nmol) was 27.67 pmol. For the same compound, the “mean (FMT-data)” value ([2]; MDA-MB-435, nativ, 5 h, 2 nmol) was 418.17, the “pmol (FMT-data)” value ([2]; MDA-MB-435, nativ, 5 h, 2 nmol) was 55.50 pmol and the “mean (FMT-data)” value [2, 12] was 444.38. The “pmol (FMT-data)” value [2, 12] was 63.57 pmol, the “cellular fluorescence signal (fluorescence microscopy)” value (“cellular fluorescence signal” for short) [3] was “high amounts of cellular fluorescence” and the “cellular fluorescence signal” value ([3]; listed as 9) was “specific visualization of the ETA receptor”. For the same compound, the “cellular fluorescence signal” value ([3]; listed as 17) was “allowed for visualisation of the ETA receptor; also recorded: only moderate cellular fluorescence”, the “cellular fluorescence signal” value ([3]; listed as targeted fluorochrome) was “strong fluorescence signal” and the “cellular fluorescence signal” value [4] was “little to no cellular fluorescence”. For the same compound, the “cellular fluorescence signal” value ([4]; listed as 17) was “no accumulation of the ligand; also recorded: do not bind the tracer” and the “cellular fluorescence signal” value ([5]; listed as 17) was “higher fluorescence signal than human breast cancer cell line MCF-7; also recorded: highest cellular fluorescence”.
In the case of `COc1ccc(C2(O)OC(=O)C(c3ccc4c(c3)OCO4)=C2Cc2cc(OC)c(OC)c(OC)c2)cc1` (stereo not drawn) [PD 156707, 3-benzo[1,3]dioxol-5-yl-5-hydroxy-5-(4-methoxyphenyl)-4-(3,4,5-trimethoxybenzyl)-5H-furan-2-one, reference compound], the IC50 (endothelin receptors [6]) is given as 300 pM, the “tumor fluorescence of ETAR-Cy 5.5 after predosing” value ([2]; predosing with unmodified ETAR antagonist) is given as “significant decrease of tumor fluorescence” and the “blocking of the binding/signal of the Cy 5.5 conjugate” value ([3]; PD 156707 50 nmol (tenfold) or ETAR antibodies 1.3 μg) is given as “could be blocked; also recorded: Blocking of the signal was possible”. The “cell behaviour at higher concentrations” value ([3]; conjugate and unlabelled antagonist up to 100 nmol) was “cells detached from the bottom of the flask”, the “myocardial signal of the fluorophore after pre-dosing” value (myocardial ETAR) was “significantly reduced” and the “blocking of the binding/signal of conjugate 17” value ([5]; HT-1080 cells (FIG. 4B), antibody 1.3 μg or tenfold excess PD 156707) was “Blocking of the signal was possible”.
For Cy 5.5 [reference compound], the “cellular fluorescence signal” value [3] was “Negligible signals”, the “cellular fluorescence signal” value [4] was “Negligible signals” and the “cellular fluorescence signal” value [5] was “Negligible signals”.
Work on “[^125I]ET-1: radioiodinated endothelin-1 radioligand (PerkinElmer)” yielded a Kd (endothelin receptors [7]) of 208 ± 2 pM.
